Measurements from ChEMBL document CHEMBL4842393, “Targeting KRAS G12D Mutant for the Potential Treatment of Pancreatic Cancer” (ACS Med Chem Lett, 2021).

Target: GTPase KRas (Homo sapiens, UniProt P01116, G12D)
Assay: Displacement of Cy5-labelled tracer from biotinylated GDP-loaded human recombinant KRAS G12D mutant (1 to 169 residues) measured after 60 mins by TR-FRET assay

Oc1cc(-c2ncc3c(N4CC5CCC(C4)N5)nc(OCC45CCCN4C(CF)CC5)nc3c2F)c2ccccc2c1 (stereo unspecified)
IC50: 100 pM
